Laboratory results as given in patent publication US8546443B2, “Benzylic oxindole pyrimidines” (Boehringer Ingelheim International GmbH, priority 2010, dated 2013).

Target: T1, cytoplasmic kinase domain of human IGF-1R (IGF-1R-GST) (Homo sapiens, UniProt P08069)
T1 construct: cytoplasmic kinase domain of human IGF-1R (amino acids 964-1370); GST (glutathione-S-transferase); made in house; host or cells: High Five insect cells (Invitrogen)
Assay: Insulin-like growth factor-1 receptor (IGF-1R) kinase assay (DELFIA)
Format: biochemical
Conditions: IGF-1R-GST kinase activity, read-out: IGF1R IC50
Protocol: Insulin-Like Growth Factor-1 Receptor (IGF-1R)-Kinase Assay
The kinase activity is measured by DELFIA® assay (dissociation-enhanced lanthanide fluorescence immunoassay, Perkin Elmer). […] Enzyme activity is measured in the presence of substances and a control substance. Poly-glutamate-tyrosine peptide (pEY, Sigma Aldrich) and biotinylated pEY (bio-pEY) are used as reaction substrates.
After 40 min at RT the reactions are stopped with 50 μL of stop solution (250 mM EDTA, 20 mM HEPES pH 7.4). 90 μL from each reaction are transferred onto streptavidin-coated 96-well plates. After 120 min incubation at RT the plates are washed three times with 200 μL phosphate-buffered saline (PBS) per well. The plates are incubated for 60 min with 100 μL of europium-coupled antibody against phospho-tyrosine (diluted 1/2000 in Perkin Elmer DELFIA assay buffer) per well. The plates are washed three times with 200 μL per well of DELFIA washing buffer. 100 μL DELFIA Enhancement Solution (Perkin Elmer) is added to each well, and the plates are incubated for 10 min. The fluorescence signal is measured with a Wallac Victor TRF Reader. IC50 values for the inhibition of the IGF-1R-kinase activity are calculated using the programmes Fifty (Version 2) and GraphPad (Version 3.0).

T1 sequence (P08069 964-1367 limits assumed): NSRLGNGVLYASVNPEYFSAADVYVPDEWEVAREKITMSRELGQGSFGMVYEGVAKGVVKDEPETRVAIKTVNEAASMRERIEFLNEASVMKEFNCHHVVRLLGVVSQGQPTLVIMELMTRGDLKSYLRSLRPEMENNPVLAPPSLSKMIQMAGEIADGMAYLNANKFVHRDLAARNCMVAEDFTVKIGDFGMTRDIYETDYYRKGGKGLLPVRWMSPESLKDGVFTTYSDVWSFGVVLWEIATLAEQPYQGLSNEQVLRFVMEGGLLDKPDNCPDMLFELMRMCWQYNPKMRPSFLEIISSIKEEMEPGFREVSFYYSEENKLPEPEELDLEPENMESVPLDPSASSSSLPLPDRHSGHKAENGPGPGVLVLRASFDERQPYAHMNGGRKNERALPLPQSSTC

SMILES | IC50 [nM]
Cc1cc(C2CCCNC2)ccc1Nc1ncc(Br)c(NCc2cccc3c2C(C)(C)C(=O)N3)n1 (racemic) [Example I-7] | 0.69
CC(=O)N1CCC(n2cc(Nc3ncc(Cl)c(NCc4cccc5c4C(C)(C)C(=O)N5)n3)cn2)CC1 [Example I-2] | 21
CN1CCN(c2ccc(Nc3ncc(Br)c(NCc4cccc5c4CC(=O)N5)n3)cc2)CC1 [Example I-8] | 28
COc1cc(N2CCNCC2)ccc1Nc1ncc(Cl)c(NCc2cccc3c2C(C)(C)C(=O)N3)n1 [Example I-11] | 2
CN(C)CC(=O)N1CCC(c2ccc(Nc3ncc(Br)c(NCc4cccc5c4C(C)(C)C(=O)N5)n3)cc2)CC1 [Example I-42] | 0.79
CN(C)CC(=O)N1CCC(c2ccc(Nc3ncc(Cl)c(NCc4cccc5c4C(C)(C)C(=O)N5)n3)cc2)CC1 [Example I-43] | 7
CC(C)(C)OC(=O)N1CCC[C@H]1C(=O)N1CCC(c2ccc(Nc3ncc(Cl)c(NCc4cccc5c4C(C)(C)C(=O)N5)n3)cc2)CC1 [Example I-44] | 25
CC(C)(C)OC(=O)NCC(=O)N1CCC(c2ccc(Nc3ncc(Cl)c(NCc4cccc5c4C(C)(C)C(=O)N5)n3)cc2)CC1 [Example I-45] | 23
CN(CC(=O)N1CCC(c2ccc(Nc3ncc(Cl)c(NCc4cccc5c4C(C)(C)C(=O)N5)n3)cc2)CC1)C(=O)OC(C)(C)C [Example I-46] | 29
CC(C)(C)OC(=O)N1CC(C(=O)N2CCC(c3ccc(Nc4ncc(Cl)c(NCc5cccc6c5C(C)(C)C(=O)N6)n4)cc3)CC2)C1 [Example I-47] | 38
CC1(C)C(=O)Nc2cccc(CNc3nc(Nc4ccc(C5CCN(C(=O)[C@@H]6CCCN6)CC5)cc4)ncc3Cl)c21 [Example I-49] | 5
CC1(C)C(=O)Nc2cccc(CNc3nc(Nc4ccc(C5CCN(C(=O)CN)CC5)cc4)ncc3Cl)c21 [Example I-50] | 3
CNCC(=O)N1CCC(c2ccc(Nc3ncc(Cl)c(NCc4cccc5c4C(C)(C)C(=O)N5)n3)cc2)CC1 [Example I-51] | 2
CC1(C)C(=O)Nc2cccc(CNc3nc(Nc4ccc(C5CCN(C(=O)C6CNC6)CC5)cc4)ncc3Cl)c21 [Example I-52] | 7
COc1cc(C2CCN(C(=O)CN(C)C)CC2)ccc1Nc1ncc(Cl)c(NCc2cccc3c2C(C)(C)C(=O)N3)n1 [Example I-58] | 1
COc1cc(N2CCN(C(=O)C3CCN(C)CC3)CC2)ccc1Nc1ncc(Cl)c(NCc2cccc3c2C(C)(C)C(=O)N3)n1 [Example I-60] | 3
COc1cc(N2CCN(C(=O)CN3CCN(C)CC3)CC2)ccc1Nc1ncc(Cl)c(NCc2cccc3c2C(C)(C)C(=O)N3)n1 [Example I-61] | 3
COc1cc(N2CCN(C(=O)C3CCCN(C)C3)CC2)ccc1Nc1ncc(Cl)c(NCc2cccc3c2C(C)(C)C(=O)N3)n1 (stereo not shown) [Example I-63] | 2
CN(C)CC(=O)N1CCC(c2ccc(Nc3ncc(C(F)(F)F)c(NCc4cccc5c4C(C)(C)C(=O)N5)n3)cc2)CC1 [Example I-75] | 2
COc1cc(N2CC3CC2CN3C(C)=O)ccc1Nc1ncc(C(F)(F)F)c(NCc2cccc3c2C(C)(C)C(=O)N3)n1 (stereo not shown) [Example I-80] | 47
COC(=O)N1CC2CC1CN2c1ccc(Nc2ncc(C(F)(F)F)c(NCc3cccc4c3C(C)(C)C(=O)N4)n2)c(OC)c1 (stereo not shown) [Example I-82] | 65
CC1(C)C(=O)Nc2cccc(CNc3nc(Nc4ccc(C5CCN(C6COC6)CC5)cc4)ncc3Cl)c21 [Example I-93] | 5
CN1CCN(c2ccc(Nc3ncc(Cl)c(NCc4cccc5c4C(C)(C)C(=O)N5)n3)cc2)CC1 [Example I-94] | 14
COc1cc(N2CCN(C3CCOCC3)CC2)ccc1Nc1ncc(Cl)c(NCc2cccc3c2C(C)(C)C(=O)N3)n1 [Example I-95] | 16
COc1cc(N2CCN(C3CCC3)CC2)ccc1Nc1ncc(Cl)c(NCc2cccc3c2C(C)(C)C(=O)N3)n1 [Example I-96] | 3
COc1cc(N2CCN(C(C)C)CC2)ccc1Nc1ncc(Cl)c(NCc2cccc3c2C(C)(C)C(=O)N3)n1 [Example I-98] | 2
CCN1CCN(c2ccc(Nc3ncc(Cl)c(NCc4cccc5c4C(C)(C)C(=O)N5)n3)c(OC)c2)CC1 [Example I-99] | 2
COc1cc(C2CCN(C)CC2)ccc1Nc1ncc(Cl)c(NCc2cccc3c2C(C)(C)C(=O)N3)n1 [Example I-100] | 2
COc1cc(N2CCN(CC3CC3)CC2)ccc1Nc1ncc(Cl)c(NCc2cccc3c2C(C)(C)C(=O)N3)n1 [Example I-101] | 2
COc1cc(N2CCN(C3CCOCC3)[C@H](C)C2)ccc1Nc1ncc(C(F)(F)F)c(NCc2cccc3c2C(C)(C)C(=O)N3)n1 [Example I-105] | 2

Other lines, results leading:

IC50 [nM] | SMILES
7 | COc1cc(N2CCC(N3CCN(S(C)(=O)=O)CC3)CC2)ccc1Nc1ncc(C(F)(F)F)c(NCc2cccc3c2C(C)(C)C(=O)N3)n1 [Example I-25]
9 | COc1cc(N2CCC(N3CCN(S(C)(=O)=O)CC3)CC2)ccc1Nc1ncc(C(F)(F)F)c(NCc2cccc3c2CC(=O)N3)n1 [Example I-26]
3 | COc1cc(N2CCNCC2)ccc1Nc1ncc(C(F)(F)F)c(NCc2cccc3c2C(C)(C)C(=O)N3C)n1 [Example I-30]
0.6 | CCOc1cc(N2CCNCC2)ccc1Nc1ncc(C(F)(F)F)c(NCc2cccc3c2C(C)(C)C(=O)N3)n1 [Example I-33]
4 | COc1cc(N2CCN(C(=O)CCN3CCCC3)CC2)ccc1Nc1ncc(Cl)c(NCc2cccc3c2C(C)(C)C(=O)N3)n1 [Example I-59]
1 | COc1cc(N2CCN(C(=O)CN(C)C)CC2)ccc1Nc1ncc(Cl)c(NCc2cccc3c2C(C)(C)C(=O)N3)n1 [Example I-62]
2 | COc1cc(N2CCN(C(=O)CCCN(C)C)CC2)ccc1Nc1ncc(Cl)c(NCc2cccc3c2C(C)(C)C(=O)N3)n1 [Example I-64]
21 | COc1cc(N2CCN(C(C)=O)CC2)ccc1Nc1ncc(C(F)(F)F)c(NCc2cccc3c2CC(=O)N3)n1 [Example I-70]
50 | COc1cc(N2CCN(C(=O)N(C)C)CC2)ccc1Nc1ncc(C(F)(F)F)c(NCc2cccc3c2CC(=O)N3)n1 [Example I-71]
72 | CCOC(=O)N1CCN(c2ccc(Nc3ncc(C(F)(F)F)c(NCc4cccc5c4CC(=O)N5)n3)c(OC)c2)CC1 [Example I-72]
29 | COC(=O)N1CCN(c2ccc(Nc3ncc(C(F)(F)F)c(NCc4cccc5c4C(C)(C)C(=O)N5)n3)c(OC)c2)C[C@H]1C [Example I-73]
2 | CN(C)CCCC(=O)N1CCC(c2ccc(Nc3ncc(C(F)(F)F)c(NCc4cccc5c4C(C)(C)C(=O)N5)n3)cc2)CC1 [Example I-74]
11 | COc1cc(N2CCN(C(=O)N(C)C)CC2)ccc1Nc1ncc(C(F)(F)F)c(NCc2cccc3c2C(C)(C)C(=O)N3)n1 [Example I-76]
3 | COc1cc(N2CCN(C(C)=O)CC2)ccc1Nc1ncc(C(F)(F)F)c(NCc2cccc3c2C(C)(C)C(=O)N3)n1 [Example I-77]
30 | CCOc1cc(N2CCN(C(C)=O)CC2)ccc1Nc1ncc(C(F)(F)F)c(NCc2cccc3c2CC(=O)N3)n1 [Example I-78]
4 | CCOc1cc(N2CCN(C(C)=O)CC2)ccc1Nc1ncc(C(F)(F)F)c(NCc2cccc3c2C(C)(C)C(=O)N3)n1 [Example I-79]
81 | COc1cc(N2CC3CC2CN3C(=O)N(C)C)ccc1Nc1ncc(C(F)(F)F)c(NCc2cccc3c2C(C)(C)C(=O)N3)n1 (stereo not shown) [Example I-81]
5 | COCC(=O)N1CCN(c2ccc(Nc3ncc(C(F)(F)F)c(NCc4cccc5c4C(C)(C)C(=O)N5)n3)c(OC)c2)CC1 [Example I-83]
0.3 | COc1cc(N2CCN(C(=O)CN(C)C)CC2)ccc1Nc1ncc(C(F)(F)F)c(NCc2cccc3c2C(C)(C)C(=O)N3)n1 [Example I-84]
9 | COCCC(=O)N1CCN(c2ccc(Nc3ncc(C(F)(F)F)c(NCc4cccc5c4C(C)(C)C(=O)N5)n3)c(OC)c2)CC1 [Example I-85]
1 | COc1cc(N2CCN(C(=O)CCCN(C)C)CC2)ccc1Nc1ncc(C(F)(F)F)c(NCc2cccc3c2C(C)(C)C(=O)N3)n1 [Example I-86]
3 | COc1cc(N2CCN(C(=O)C3CCN(C)CC3)CC2)ccc1Nc1ncc(C(F)(F)F)c(NCc2cccc3c2C(C)(C)C(=O)N3)n1 [Example I-87]
9 | COc1cc(N2CCN(C(=O)CN3CCN(C)CC3)CC2)ccc1Nc1ncc(C(F)(F)F)c(NCc2cccc3c2C(C)(C)C(=O)N3)n1 [Example I-88]
0.18 | COc1cc(N2CCN(C(=O)CCN(C)C)CC2)ccc1Nc1ncc(C(F)(F)F)c(NCc2cccc3c2C(C)(C)C(=O)N3)n1 [Example I-89]
0.32 | COc1cc(N2CCN(C(=O)C3CCCN(C)C3)CC2)ccc1Nc1ncc(C(F)(F)F)c(NCc2cccc3c2C(C)(C)C(=O)N3)n1 (stereo not shown) [Example I-90]
6 | COc1cc(N2CCN(C(=O)CN(C)C)CC2)ccc1Nc1ncc(C(F)(F)F)c(NCc2cccc3c2CC(=O)N3)n1 [Example I-91]
9 | COc1cc(N2CCN(C(=O)CCCN(C)C)CC2)ccc1Nc1ncc(C(F)(F)F)c(NCc2cccc3c2CC(=O)N3)n1 [Example I-92]
0.08 | COc1cc(N2CCN(C(C)C)[C@H](C)C2)ccc1Nc1ncc(C(F)(F)F)c(NCc2cccc3c2C(C)(C)C(=O)N3)n1 [Example I-106]
